Common to all, as to assay type: in vivo
The test system of test [1] is spontaneous diabetes in NOD mice. Put plainly: Effect of feeding porcine insulin on spontaneous diabetes in NOD mice (Example 1). The source says:
NOD (non-obese diabetic mice) were obtained from Taconic Laboratories (Germantown, Mass.) at 4 weeks of age. There were a total of 30 animals in each of the groups mentioned below at the beginning of the experiment. At 4½ weeks of age, animals were orally administered Porcine insulin (Novo Laboratories, Danbury, Conn.). Each animal received two treatments orally twice a week until 9 weeks of age. The mice were fed either saline (control) or 10 micrograms, 100 micrograms, or 1 milligram of Porcine insulin. The animals were fed (gavaged) with an 18 gauge ball-point needle (Popper and Sons, Inc., New Hyde Park, N.Y.). Beginning at 10 weeks the animals were then fed once a week for a total of 33 weeks. Beginning at 12 weeks the urine was tested weekly for the presence of glucose using Glucosuria test tape (Eli Lilly, Indianapolis, Ind.). If an animal tested 3+ or higher on the glucose urine test, a serum sample was taken and blood glucose measured using a glucose analyzer (Beckman). If the blood glucose was 220 or higher, the animals were classified as diabetic and then sacrificed.

Test [2] relates to blood glucose in fasting NOD mice. Put plainly: Glucose post oral insulin in fasting 7 week NOD mice (Example 2). The settings on record: for blood glucose after feeding: 1 mg fed orally, fasting 7 week old NOD mice. On the procedure:
In order to determine whether any endocrinologic (i.e. direct lowering of blood sugar) effects occurred following the feeding of insulin, 7 week old NOD mice (5 mice per group) were fed 1 mg of porcine insulin or 1 mg of myelin basic protein (obtained from Pel Freez, Rogers, Ark.) as a control protein. Blood glucose was then measured over the next 24 hour period. As a positive control, a separate group of animals were injected subcutaneously with 20 micrograms of Porcine insulin. All animals were kept in the fasting state.

A further test has as its system insulitis in NOD mice. Briefly: Preliminary experiments on insulitis in insulin-fed NOD mice. The settings on record: NOD mice fed 1 mg of insulin vs PBS-fed, data not shown. The source says:
Therefore, oral administration of insulin to NOD mice appeared to be affecting the infiltration of immune system cells into the pancreas and thus halting disease progression by preserving beta cell function.

Test [3] deals with NOD mice suffering from hyperglycemia. Briefly: Treatment of initial stages of diabetes in NOD mice (Example 5). As to conditions: oral and aerosol administration to hyperglycemic NOD mice; expected. On the procedure: Insulin (0 to 1 mg as in Examples 1 and 2) will be administered to NOD mice which are suffering from hyperglycemia in an oral and aerosol form. The treatments will begin by weeks 12-20 of age, by which the serum glucose levels are at hyperglycemic concentrations in a certain percentage of animals prior to onset of diabetes.

The next test concerns diabetes in NOD mice. Put plainly: Effect of aerosol administration of insulin on diabetes in NOD mice (Example 4). As to conditions: insulin 0 to 1 mg in aerosol form by nebulizer; expected. On the procedure: Insulin (0 to 1 mg as in Examples 1 and 2) will be administered to NOD mice as described above in Examples 1 and 2 except in aerosol form by nebulizer.

Entries after “also recorded” stand apart in the source; their conditions may differ.

Porcine insulin: the values for the development of diabetes result in test [1] (NOD mice fed 1 mg insulin orally), in test [1] (NOD mice fed 10 micrograms insulin orally) and in test [1] (NOD mice fed 100 micrograms insulin orally) were “none of the mice went on to develop diabetes; also recorded: no diabetes developed; also recorded: None of the animals developed diabetes”, “diabetes developed” and “diabetes developed”, respectively. Moreover, the incidence of diabetes result in test [1] (all doses of orally administered insulin tested (10 micrograms, 100 micrograms, 1 mg)) is “lower incidence of diabetes; also recorded: reduced the numbers of these mice which subsequently went on to develop diabetes”. Further, the “blood glucose after feeding” value in test [2] is on record as “no drop in the blood glucose”. The “endocrinologic (metabolic) effects from feeding” value in test [2] (1 mg oral insulin, NOD mice) was “not a metabolic effect; also recorded: no endocrinologic (metabolic) effects”. For the same molecule, the “period over which the glucose decrease persisted” value in test [2] (20 micrograms porcine insulin injected subcutaneously, fasting NOD mice) worked out at 4 h. Further, the “decrease in glucose level” value in test [2] (20 micrograms porcine insulin injected subcutaneously, fasting NOD mice (positive control)) is recorded as “approximately 80 mg %”. The “inflammatory immune system cells surrounding the pancreas (insulitis)” value in the test with insulitis in NOD mice was “fewer inflammatory immune system cells surrounding the pancreas”. Besides, the beta cell function entry in test [3] is recorded as “preservation of beta cell function”. Moreover, in test [3], the serum glucose concentrations result was “reduction in serum glucose concentrations to near normal levels”. The “prevention of manifestation of symptoms (hyperglycemia) of Type 1 diabetes” value in the test on diabetes in NOD mice is reported as “effective in preventing the manifestation of symptoms”.

B1: myelin basic protein (protein, UniProt P02687 1-169, looked up)
Myelin basic protein: AAQKRPSQRSKYLASASTMDHARHGFLPRHRDTGILDSLGRFFGSDRGAPKRGSGKDGHHAARTTHYGSLPQKAQGHRPQDENPVVHFFKNIVTPRTPPPSQGKGRGLSLSRFSWGAEGQKPGFGYGGRASDYKSAHKGLKGHDAQGTLSKIFKLGGRDSRSGSPMARR
notes: myelin basic protein (obtained from Pel Freez) fed as a control protein
Turning to B1, the “blood glucose after feeding” value in test [2] is listed as “no drop in the blood glucose”.

Values taken from US6703361B2, “Method of treating or preventing Type 1 diabetes by oral administration of insulin” (AutoImmune Inc., priority 1990, dated 2004).
